Active and inactive are the calls of the source. The rule behind the calls is not given here.
Experiments:
[1] = Cytotoxicity against human MCF7-DOX cells measured after 48 hrs by MTT assay; format: cell-based
RAW264.7 = assay: Inhibition of NO production in LPS-stimulated mouse RAW264.7 cells; format: functional, cell-based
[2] = Anti-MDR activity in human MCF7-DOX cells assessed as reversal of cell resistance to doxorubicin by measuring reversal fold at 30 uM measured after 48 hrs by MTT assay; format: functional
[3] = Anti-MDR activity in human MCF7-DOX cells assessed as reversal of cell resistance to doxorubicin by measuring reversal fold at 10 uM measured after 48 hrs by MTT assay; format: functional

Row | SMILES | Activity [1] | inhibition (RAW264.7) | fold change (FC) [2] | fold change (FC) [3]
1 | C/C=C(\C)C(=O)O[C@H]1C[C@@H](OC(C)=O)[C@@]2(C)CO[C@H]3[C@@H](O)[C@@]4(C)C5=C(C)[C@H](c6ccoc6)C[C@@H]5O[C@@H](OC)C[C@@H]4[C@]1(C)[C@@H]32 | Non-Toxic | inactive |  | 
2 | CC(=O)O[C@H]1C[C@@H](OC(C)=O)[C@@]2(C)CO[C@H]3[C@@H](O)[C@@]4(C)C5=CC[C@@H](c6ccoc6)[C@]5(C)CC[C@@H]4[C@]1(C)[C@@H]32 [DIACETYLVILASININ] | Non-Toxic | inactive | 18.3 | 7.8
3 | COc1ccc(CCN(C)CCCC(C#N)(c2ccc(OC)c(OC)c2)C(C)C)cc1OC (stereo not drawn) [VERAPAMIL] |  |  |  | 9.2
4 | C/C=C(\C)C(=O)O[C@H]1C[C@@H](OC(C)=O)[C@@]2(C)CO[C@H]3[C@@H](O)[C@@]4(C)C5=C(C)[C@H](c6ccoc6)C[C@@H]5O[C@@H](O)C[C@@H]4[C@]1(C)[C@@H]32 | Non-Toxic | inactive |  | 
5 | CC(=O)O[C@H]1C[C@@H](OC(C)=O)[C@@]2(C)CO[C@H]3[C@@H](O)[C@@]4(C)C5=C(C)[C@H](c6ccoc6)C[C@@H]5OCC[C@@H]4[C@]1(C)[C@@H]32 | Non-Toxic | inactive |  | 
6 | C/C=C(\C)C(=O)O[C@H]1C[C@@H](OC(C)=O)[C@@]2(C)CO[C@H]3[C@@H](O)[C@@]4(C)C5=C(C)[C@H](c6ccoc6)C[C@@H]5OCC[C@@H]4[C@]1(C)[C@@H]32 | Non-Toxic | inactive | 5.2 | 2.7
7 | C/C=C(\C)C(=O)O[C@H]1C[C@@H](OC(C)=O)[C@@]2(C(=O)OC)CO[C@H]3[C@H]4O[C@]5(C)[C@H]6C[C@H](O[C@@H]7OC=C[C@@]76O)[C@]5(O)[C@@]4(C)[C@H](C(=O)CO)[C@]1(C)[C@@H]32 | Non-Toxic | inactive |  | 
8 | C/C=C(\C)C(=O)O[C@H]1C[C@@H](OC(C)=O)[C@@]2(C)CO[C@H]3[C@@H](O)[C@@](C)(C4=C(C)[C@H](c5ccoc5)CC4=O)[C@H](C(=O)CO)[C@]1(C)[C@@H]32 | Non-Toxic | inactive |  | 
9 | C/C=C(\C)C(=O)O[C@H]1C[C@@H](OC(C)=O)[C@@]2(C)CO[C@H]3[C@@H](O)[C@@]4(C)C5=CC[C@@H](c6ccoc6)[C@]5(C)OCC[C@@H]4[C@]1(C)[C@@H]32 | Non-Toxic | inactive |  | 
10 | C/C=C(\C)C(=O)O[C@@H]1C[C@H](OC(C)=O)[C@]23CO[C@H](CO)[C@H]2[C@](C)([C@]24O[C@@]2(C)[C@H]2C[C@@H]4O[C@@H]4O[C@H](OC)C[C@@]42O)[C@H](O)[C@@H]2OC[C@@]1(C(=O)OC)[C@H]23 | Non-Toxic | inactive |  | 
11 | C/C=C(\C)C(=O)O[C@H]1C[C@@H](OC(C)=O)[C@@]2(C)CO[C@H]3[C@@H](O)[C@@]4(C)C5=C(C)[C@H](C6=CCOC6=O)C[C@@H]5OCC[C@@H]4[C@]1(C)[C@@H]32 | Non-Toxic | inactive |  | 
12 | CC(=O)O[C@H]1C[C@@H](OC(C)=O)[C@@]2(C)CO[C@H]3[C@@H](O)[C@@]4(C)C5=CC[C@@H](c6ccoc6)[C@]5(C)OCC[C@@H]4[C@]1(C)[C@@H]32 | Non-Toxic | inactive |  | 
13 | C/C=C(\C)C(=O)O[C@H]1C[C@@H](OC(C)=O)[C@@]2(C)CO[C@H]3[C@@H](O)[C@@]4(C)C5=C(C)[C@H](C6=CCOC6=O)C[C@@H]5O[C@@H](OCC)C[C@@H]4[C@]1(C)[C@@H]32 | Non-Toxic | inactive |  | 
14 | C/C=C(\C)C(=O)O[C@@H]1C[C@H](OC(C)=O)[C@]23CO[C@H](CO)[C@H]2[C@](C)([C@]24O[C@@]2(C)[C@H]2C[C@@H]4O[C@@H]4O[C@H](OCC)C[C@@]42O)[C@H](O)[C@@H]2OC[C@@]1(C(=O)OC)[C@H]23 | Non-Toxic | inactive |  | 
15 | CC(=O)OCC[C@H]1[C@]2(C)C3=C(C)[C@H](c4ccoc4)C[C@H]3O[C@@H]2[C@@H]2OC[C@]3(C)[C@H](OC(C)=O)C[C@H](OC(C)=O)[C@@]1(C)[C@@H]23 | Non-Toxic | inactive |  | 
16 | C/C=C(\C)C(=O)O[C@H]1C[C@@H](OC(C)=O)[C@@]2(C)CO[C@H]3[C@@H](O)[C@@]4(C)C5=C(C)[C@H](c6ccoc6)C[C@@H]5O[C@@H](OCC)C[C@@H]4[C@]1(C)[C@@H]32 | Non-Toxic | inactive |  | 
17 | CC(=O)O[C@@H]1C[C@H](OC(=O)c2ccccc2)[C@@]2(C)[C@H]3[C@@H](OC[C@]13C)[C@@H](O)[C@@]1(C)C3=C(C)[C@H](c4ccoc4)C[C@@H]3OCC[C@@H]12 | Non-Toxic | inactive |  | 
18 | C/C=C(\C)C(=O)O[C@@H]1C[C@H](OC(C)=O)[C@]23CO[C@H](CO)[C@H]2[C@](C)([C@]24O[C@@]2(C)[C@H]2C[C@@H]4O[C@@H]4O[C@H](OC)C[C@]42O)[C@H](O)[C@@H]2OC[C@@]1(C(=O)OC)[C@H]23 | Non-Toxic | inactive |  | 
19 | C/C=C(\C)C(=O)O[C@H]1C[C@@H](OC(C)=O)[C@@]2(C)CO[C@H]3[C@H]4O[C@]5(C)[C@H]6C[C@H](O[C@@H]7O[C@@H](OC)C[C@@]76O)[C@]5(O)[C@@]4(C)[C@H](C(=O)CO)[C@]1(C)[C@@H]32 | Non-Toxic | inactive |  | 
20 | C/C=C(\C)C(=O)O[C@H]1C[C@@H](OC(C)=O)[C@@]2(C)CO[C@H]3[C@@H](O)[C@@]4(C)C5=C(C)[C@H](C6=CCOC6=O)C[C@@H]5O[C@@H](OC)C[C@@H]4[C@]1(C)[C@@H]32 | Non-Toxic | inactive |  | 
21 | C/C=C(\C)C(=O)O[C@H]1C[C@@H](OC(C)=O)[C@@]2(C)CO[C@H]3[C@H]4O[C@]5(C)[C@H]6C[C@H](O[C@@H]7OC=C[C@@]76O)[C@]5(O)[C@@]4(C)[C@H](C(=O)CO)[C@]1(C)[C@@H]32 | Non-Toxic | inactive |  | 
22 | C/C=C(\C)C(=O)O[C@H]1C[C@@H](OC(C)=O)[C@@]2(C)CO[C@H]3[C@@H](O)[C@]4(C)[C@H](C[C@@H]5O[C@H]6CC(c7ccoc7)=C(C)[C@@]64O5)[C@]1(C)[C@@H]32 | Non-Toxic | inactive |  | 
23 | C/C=C(\C)C(=O)O[C@H]1C[C@@H](OC(C)=O)[C@@]2(C)CO[C@H]3[C@@H](O)[C@@]4(C)C5=C(C)[C@H](c6ccoc6)C[C@@H]5O[C@H](OC)C[C@@H]4[C@]1(C)[C@@H]32 | Non-Toxic | inactive | 4.5 | 3.4
24 | CO[C@H]1C[C@H]2[C@](C)(C3=C(C)[C@H](c4ccoc4)C[C@@H]3O1)[C@H](O)[C@@H]1OC[C@]3(C)[C@H](OC(C)=O)C[C@H](OC(=O)c4ccccc4)[C@@]2(C)[C@@H]13 | Non-Toxic | inactive |  | 

Reference: ChEMBL document CHEMBL4840321, “Limonoids with Diverse Oxidation Patterns of C-12 Indicating a Complete Ring C-seco Biogenetic Pathway from Munronia unifoliolata” (J Nat Prod, 2021)
